Data taken from patent EP0417790B1, “S-triazolo[3,4-i]purine derivatives” (Kyowa Hakko Kogyo Co., Ltd., priority 1989, dated 1991).
Where two headings read alike, the source gives them in different places.

How the values were obtained:
[1] = test system: Wistar male rats; test: Diuretic activity; type: in vivo; conditions: Rattus norvegicus, po, 25 mg/kg orally, urine taken for 6 hours
Protocol: Wistar male rats weighing 150 to 300 g were used after fasting for 18 hours. […] The test was performed using 3 groups per test compound, and each group consists of 3 animals. The urine was metered by a measuring cylinder and electrolytes (Na^+ and K^+) in the urine were analyzed by flame photometer (model […]: Hitachi Ltd.). Parameters in Table 3 are represented by relative value for control.

[2] = test system: male dd mice; test: Inhibition of platelet activating factor (PAF)-induced mortality; type: in vivo; conditions: Mus musculus, minimum effective dose, oral, 1 hour before 40 µg/kg PAF i.v., mortality 2 hours after PAF, read-out: PAF-induced mortality MED
Protocol: The experiment was performed by a minor modification of method of Carlson et al. [Agents and Actions, 21, 379 (1987)]. Groups each consisting of 10 male dd mice (weighing 28 to 32 g) were used, and 100 mg/kg of test compound or a saline (control) was orally administrated. One hour after the administration of test compound, 40 µg/kg of PAF (manufactured by Avanti Polar Lipids Co., Ltd.) was intravenously administered. Two hours after PAF injection, the mortality rate of the animals was observed. […]

[3] = test system: trachea; test: Passive Schultz-Dale reaction (broncho-dilatory effect) on isolated tracheal strips; conditions: Cavia porcellus; 50% relaxation of antigen (EWA, 1 µg/ml)-contracted tracheal strips of passively sensitized guinea pigs
Protocol: Guinea pigs were passively sensitized as follows. Hartley male guinea pigs weighing 350 to 500 g were injected intraperitoneally with rabbit anti-egg albumin (EWA) serum prepared by the method of Koda et al. [Folia pharmacol., Japon 66, 237, (1970)]. After 24 hours, the guinea pigs were stunned and exsanguinated, and then trachea was excised. The zig-zag strips of the trachea were prepared by the method of Emmerson and Mackay [J. Pharm. Pharmacol., 31, 798, (1979)]. The strips were suspended in Krebs-Henseleit solution at 37°C under aeration of a mixed gas of 95% oxygen and 5% carbon dioxide, and incubated for one hour. Antigen (EWA) was then introduced in the solution (final concentration; 1 µg/ml), and the contraction was measured by isotonictransducer (TD-112s, made by Nihon Kohden K.K., Japan) and recorded on a recorder (Type 3066, made by Yokogawa-Hokushin Denki, K.K. Japan). After the contraction curves reached plateau the compounds were successively added in order to get cumulative concentration-relaxation curves. Concentration of 50% relaxation rate (IC50) was calculated from the regression line, which was obtained from cumulative concentration-relaxation curves.

[4] = test system: Hartley male guinea pigs; test: Experimental asthma (collapse time after antigen aerosol); type: in vivo; conditions: 50 mg/kg orally, 1 hour before 1.5% EWA aerosol; n=3-10 mean±S.E.M.; control 254 ± 18
Protocol: Guinea pigs were passively sensitized as follows. Hartley male guinea pigs weighing 350 to 500 g were intraperitoneally injected with 1 ml of rabbit anti-egg alubmin (EWA) serum prepared by the method of Koda et al. [Folia pharmacol., Japon, 66, 237 (1970)]. The animals were treated with intraperitoneal injection of diphenhydramine (20 mg/kg) and propranolol (5 mg/kg), 30 minutes before administration of test compounds. 17 hours after the sensitization, the test compounds (50 mg/kg or 5 mg/kg) or saline (control) were orally administrated to sensitized animals. After one hour from the administration of the test compounds, the guinea pigs were placed in plastic observation box and were exposed to an aerosal antigen of 1.5% EWA.
The time until the onset of respiratory distress-like symptom [collapse time (second)] was measured as a result of experimental asthma.

[5] = test system: male dd-mice; test: Acute toxicity; type: in vivo; conditions: Minimum lethal dose, oral, mortality observed for seven days
Protocol: The compounds were orally administrated to male dd-mice weighing 20 ± 1 g. Minimum lethal dose (MLD) was determined by observing the mortality for seven days after the administration.

[6] = test system: mice; test: Scopolamine-induced amnesia, step through passive avoidance; type: in vivo; conditions: scopolamine 0.5 mg/kg i.p., mean ± S.E.M., controls 40.9±8.1 (Compound 41), 37.0±6.2 (Compound 51)
Protocol: Acquisition trial was performed in a manner similar to Experiment (f). Amnestic treatment was performed by intraperitoneal administration of scopolamine (0.5 mg/kg), 30 minutes prior to the acquisition trial. The test trial was performed 24 hours after the acquisition trial and its latency was determined as in Experiment (f).
Preparation of administrated test compound was performed in a manner similar to Experiment (f). Test compound and the saline were orally administered 60 minutes before the acquisition trial, respectively.

[7] = relative value for control (1.00), read-out: Na^+/K^+
[8] = relative value for control (100), read-out: Excretion of K^+
[9] = relative value for control (100), read-out: Excretion of Na^+
[10] = relative value for control (100), read-out: Urine volume

| SMILES | response vs control in vivo at 25 mg/kg [1, 7] [%] | response vs control in vivo at 25 mg/kg [1, 8] [%] | response vs control in vivo at 25 mg/kg [1, 9] [%] | response vs control in vivo at 25 mg/kg [1, 10] [%] | minimal effective dose [2] [mg/kg] | IC50 [3] [µM] | Experimental asthma Collapse time [4] [s] | MLD [5] [mg/kg] | Latency of test trial ([6]; 0.625 mg/kg orally 60 minutes before acquisition trial) [s] | Latency of test trial ([6]; 2.5 mg/kg orally 60 minutes before acquisition trial) [s] | Latency of test trial ([6]; 10 mg/kg orally 60 minutes before acquisition trial) [s] | Latency of test trial ([6]; 40 mg/kg orally 60 minutes before acquisition trial) [s] |
| --- | --- | --- | --- | --- | --- | --- | --- | --- | --- | --- | --- | --- |
| CCCn1c(=O)n2c(-c3ccncc3)nnc2c2[nH]cnc21 [Compound 31, 6,9-Dihydro-6-n-propyl-3-(4-pyridyl)-5H-1,2,4-triazolo[3,4-i]purin-5-one] | 166 | 118 | 196 | 191 | 25 | 11 | 512 ± 52 | >300 |  |  |  |  |
| CCCCn1c(=O)n2c(-c3ccncc3)nnc2c2[nH]cnc21 [Compound 38, 6-n-Butyl-6,9-dihydro-3-(4-pyridyl)-5H-1,2,4-triazolo-[3,4-i]purin-5-one] | 163 | 180 | 293 | 353 | 25 | > 40 | 401 ± 78 | >300 |  |  |  |  |
| CCCn1c(=O)n2c(-c3cccc(Cl)c3)nnc2c2c1ncn2C [Compound 11, 3-(3-Chlorophenyl)-6,9-dihydro-9-methyl-6-n-propyl-5H-1,2,4-triazolo[3,4-i]purin-5-one] | 226 | 134 | 302 | 255 | 100 | > 40 |  | >300 |  |  |  |  |
| CCCn1c(=O)n2c(-c3ccncc3)nnc2c2c1ncn2C [Compound 3, 6,9-Dihydro-9-methyl-6-n-propyl-3-(4-pyridyl)-5H-1,2,4-triazolo[3,4-i]purin-5-one] | 109 | 196 | 224 | 274 |  | 0.032 | 422 ± 130 | 100 |  |  |  |  |
| CCCn1c(=O)n2c(-c3ccccc3)nnc2c2[nH]cnc21 [Compound 30, 6,9-Dihydro-3-phenyl-6-n-propyl-5H-1,2,4-triazolo[3,4-i]purin-5-one] | 177 | 124 | 220 | 204 | 10 | 0.76 |  | 300 |  |  |  |  |
| CCCn1c(=O)n2c(-c3ccccc3Cl)nnc2c2c1ncn2C [Compound 10, 3-(2-Chlorophenyl)-6,9-dihydro-9-methyl-6-n-propyl-5H-1,2,4-triazolo[3,4-i]purin-5-one] | 124 | 109 | 134 | 162 |  | 18 |  | 300 |  |  |  |  |
| CCCCn1c(=O)n2c(=O)[nH]nc2c2c1ncn2C [Compound 51, 6-n-Butyl-9-methyl-2,5,6,9-tetrahydro-3H-1,2,4-triazolo[3,4-i]purin-3,5-dione] | 100 | 152 | 152 | 200 |  |  |  | >300 | 37.0 ± 11.2 | 69.5 ± 16.6 | 139.9 ± 45.1 | 166.3 ± 49.9 |
| CCCn1c(=O)n2c(-c3ccc(OC)cc3)nnc2c2c1ncn2C [Compound 9, 6,9-Dihydro-3-(4-methoxyphenyl)-9-methyl-6-n-propyl-5H-1,2,4-triazolo[3,4-i]purin-5-one] | 157 | 139 | 219 | 253 |  | 7.8 |  | >300 |  |  |  |  |
| CCCn1c(=O)n2c(-c3ccccc3)nnc2c2c1ncn2C [Compound 1, 6,9-Dihydro-9-methyl-3-phenyl-6-n-propyl-5H-1,2,4-triazolo-[3,4-i]purin-5-one] | 318 | 87 | 226 | 255 |  | 4.1 |  | 100 |  |  |  |  |
| CCCn1c(=O)n2c(-c3ccco3)nnc2c2c1ncn2C [Compound 5, 6,9-Dihydro-3-(2-furyl)-9-methyl-6-n-propyl-5H-1,2,4-triazolo[3,4-i]purin-5-one] |  |  |  |  | 100 | 0.7 |  | >300 |  |  |  |  |
| CCCn1c(=O)n2c(-c3cccnc3)nnc2c2c1ncn2C [Compound 4, 6,9-Dihydro-9-methyl-6-n-propyl-3-(3-pyridyl)-5H-1,2,4-triazolo[3,4-i]purin-5-one] | 125 | 134 | 167 | 177 |  | 7.7 | 358 ± 65 | 200 |  |  |  |  |
| CCCn1c(=O)n2c(-c3ccoc3C)nnc2c2c1ncn2C [Compound 6, 6,9-Dihydro-9-methyl-3-(2-methyl-3-furyl)-6-n-propyl-5H-1,2,4-triazolo[3,4-i]purin-5-one] | 164 | 146 | 240 | 223 | 100 |  |  | 200 |  |  |  |  |
| CCCn1c(=O)n2c(C)nnc2c2c1ncn2C [Compound 24, 6,9-Dihydro-3,9-dimethyl-6-n-propyl-5H-1,2,4-triazolo-[3,4-i]purin-5-one] | 123 | 168 | 148 | 160 | 100 |  |  | 300 |  |  |  |  |
| Cn1c(=O)c2[nH]cnc2n(C)c1=O [Theophylline, reference compound] |  |  |  |  | 100 | 23 | 414 ± 47 |  |  |  |  |  |
| CCCn1c(=O)n2c(-c3cccc(OC)c3)nnc2c2c1ncn2C [Compound 8, 6,9-Dihydro-3-(3-methoxyphenyl)-9-methyl-6-n-propyl-5H-1,2,4-triazolo[3,4-i]purin-5-one] | 144 | 122 | 175 | 170 |  | 5.6 |  | >300 |  |  |  |  |
